Reference: US20230089534A1, “PHENOLIC COMPOSITIONS FOR MALODOR REDUCTION” (Milliken & Company, priority 2021, published 2023)

How the values were obtained:
[1] = Stability of antioxidants in AATCC HE liquid detergent (crystallization/precipitation); format: physicochemical; conditions: room temperature, after 3 days
From the text: A comparison of the stability of the antioxidants in standard AATCC detergent was made to highlight the benefit of having a plurality of molecules. Due to the highly crystalline nature of many commercially available antioxidants, they tend to be incompatible in detergent and will crystallize out of the detergent over time. The inventive compounds of this invention show improvements in remaining stable in liquid detergent.
The antioxidants in table 6 were combined with AATCC HE liquid detergent without optical brighteners (available from Test Fabrics, Inc., Item #0501001) in a 20 mL glass scintillation vial. The vials were placed in a sonicator for 1 hour, then heated to 80° C. for 30 minutes, whereby all samples were completely dissolved. The samples were removed from the oven, swirled briefly and hand then allowed to cool to room temperature. When the vials were cooled down to room temperature, the bottom of the vials were scratched with a metal spatula a few times to aide in the crystallization process, which can take a long time if left undisturbed. After an additional 3 days, observations were recorded as crystallization present or not present in Table 6.

[2] = Wash test: malodor marker reduction on artificial body soil treated fabric, headspace GCMS; conditions: Table 5, vs control detergent nil antioxidant
Protocol: In order to test the efficiency of the antioxidants for malodor reduction, an artificial body soil (ABS) was prepared. The artificial body soil is a modified version of the soil from ASTM D4265-21. To prepare the ABS, the components of Table 1 were combined in an 8 oz. jar and heated to 70° C. until fully solubilized.
50/50 Cotton/poly interlock fabric (Style 7439 GB, Testfabrics, Inc.) was cut into 2 in×5 in swatches. Cut swatches were dosed with three equally spaced 0.36 mL portions of artificial body soil composition. Fabrics were then sealed together in a mylar bag and incubated at 37° C. for four to seven days prior to wash treatment.
Antioxidant solution was prepared by dissolving the antioxidant compound to be tested in methanol at 0.5% w/w. The antioxidant solution was dosed into the wash water (500 mL) using a micropipettor according to Table 3 to obtain the desired concentration of antioxidant in wash water required for the testing.
To 1 L wash beaker was added 0.4 g Tide Free and Gentle detergent, 500 mL of wash water (as prepared in Table 2) and the antioxidant solution as described in Table 3. The wash beaker was placed in a tergetometer. To the wash beaker was added two incubated fabric swatches (4 g) followed by one 11 in×11 in 50/50 Cotton/Poly interlock knit clean fabric swatch (16 g, Style 74390B, Testfabrics, Inc.), for a total liquor to fabric ratio of 25:1. The fabrics were then washed in the tergotometer for 15 minutes and spun dried for one minute in a spin dryer (Mini Spin Dryer Model LASD-1 available from The Laundry Alternative, Inc.). […] The tests were run in triplicate and an average malodor reduction percent was calculated. […]
The percent malodor reduction is determined by GCMS using an Agilent Intuvo 9000 GC equipped with an Agilent 7000D GC/TQ mass spectrometer and a Trajan PAL 3 RTC sampler equipped with a solid phase micro-extraction (SPME) probe. […] The extracted ion chromatogram for 3-methyl-2-butenal includes Quantifier: 84, Qualifier: 55, Ratio: 35.7. […]

Precipitation Seen ([1]; loading 500 ppm in AATCC detergent): No | Precipitation Seen ([1]; loading 1000 ppm in AATCC detergent): No | Precipitation Seen ([1]; loading 5000 ppm in AATCC detergent): Yes | Precipitation Seen ([1]; loading 10000 ppm in AATCC detergent): Yes
SMILES: Cc1cc(CCC(=O)OCCOCCOCCOC(=O)CCc2cc(C)c(O)c(C(C)(C)C)c2)cc(C(C)(C)C)c1O [Irganox 245, 2-[2-(2-{3-[3-(tert-Butyl)-4-hydroxy-5-tolyl]propionoxy}ethoxy)ethoxy]ethyl 3-[3-(tert-butyl)-4-hydroxy-5-tolyl]propionate]
% Malodor marker reduction ([2]; 2 ppm in wash water): 44.0% | % Malodor marker reduction ([2]; 4 ppm in wash water): 74.4% | % Malodor marker reduction ([2]; 8 ppm in wash water): 89.5%
